# Assay: Safety and tolerability (TEAEs, SAEs, DLTs, RP2D) in phase Ib study
# Type: in vivo, human
# Details: 500 mg BID + nab-P/Gem
# Excerpt: Safety assessments included collection of adverse events (AEs), serious AEs (SAEs), vital signs and physical examination, electrocardiogram (12-lead), laboratory assessments, including pregnancy test, and verification of concomitant treatments. A patient was considered as DLT-evaluable if the patient experienced a DLT or if otherwise, in the absence of a DLT, the patient received at least 85% of the planned doses of each study drug in the first 28-day cycle. DLTs were defined as any of the following events occurring in the first cycle of treatment (days 1 through 28) and attributed (i.e., judged to be at least possibly related) to the combination of PF-04136309 plus nab-paclitaxel/gemcitabine, where relationship with the combination could not be ruled out. DLTs were hematologic events of grade 4 neutropenia lasting >5 days; febrile neutropenia; grade ≥ 3 neutropenic infection; grade ≥ 3 thrombocytopenia with grade ≥ 2 bleeding; grade 4 thrombocytopenia; and nonhematologic events of grade 3 toxicities. Exceptions included nausea and vomiting responding to prophylaxis and/or treatment and lasting <7 days from each chemotherapy infusion period; diarrhea responding to treatment and lasting <7 days; grade 3 fatigue lasting <7 days; grade 3 QT interval corrected for heart rate prolongation (>500 msec) persisting after correction of any reversible causes; and/or grade 3 aspartate aminotransferase (AST) and/or alanine aminotransferase (ALT) increase lasting ≤7 days. All grade 4 toxicities and a delay of >2 weeks in receiving the next scheduled cycle due to persistent treatment-related toxicities were considered DLTs. AEs meeting DLT criteria in the dose-expansion phase included grade 3 events of diarrhea, hypokalemia, and dysesthesia and grade 4 hypoxia. […] AEs were graded according to the National Cancer Institute Common Terminology Criteria for Adverse Events, version 4.03.
compound,measurement,setting,value
O=C(NCC(=O)N1CC[C@H](N[C@H]2CC[C@@](O)(c3ccc(-c4ncccn4)cn3)CC2)C1)c1cccc(C(F)(F)F)c1 [PF-04136309],"Alopecia, Grade 4",all-causality TEAE,0 n (%)
same,"Alopecia, Grade 5",all-causality TEAE,0 n (%)
same,"Alopecia, Total",all-causality TEAE,10 (58.8) n (%)
same,"Anemia, Grade 1",all-causality TEAE,2 (11.8) n (%)
same,"Anemia, Grade 2",all-causality TEAE,5 (29.4) n (%)
same,"Anemia, Grade 3",all-causality TEAE,4 (23.5) n (%)
same,"Anemia, Grade 4",all-causality TEAE,0 n (%)
same,"Anemia, Grade 5",all-causality TEAE,0 n (%)
same,"Anemia, Total",all-causality TEAE,11 (64.7) n (%)
same,"Any AE, Grade 1",all-causality TEAE,0 n (%)
same,"Any AE, Grade 2",all-causality TEAE,1 (5.9) n (%)
same,"Any AE, Grade 3",all-causality TEAE,12 (70.6) n (%)
same,"Any AE, Grade 4",all-causality TEAE,3 (17.6) n (%)
same,"Any AE, Grade 5",all-causality TEAE,1 (5.9) n (%)
same,"Any AE, Total",all-causality TEAE,17 (100.0) n (%)
same,"Appetite decrease, Grade 1",all-causality TEAE,5 (29.4) n (%)
same,"Appetite decrease, Grade 2",all-causality TEAE,0 n (%)
same,"Appetite decrease, Grade 3",all-causality TEAE,1 (5.9) n (%)
same,"Appetite decrease, Grade 4",all-causality TEAE,0 n (%)
same,"Appetite decrease, Grade 5",all-causality TEAE,0 n (%)
same,"Appetite decrease, Total",all-causality TEAE,6 (35.3) n (%)
same,"Blood alkaline phosphatase, Grade 1",all-causality TEAE,1 (5.9) n (%)
same,"Blood alkaline phosphatase, Grade 2",all-causality TEAE,4 (23.5) n (%)
same,"Blood alkaline phosphatase, Grade 3",all-causality TEAE,2 (11.8) n (%)
same,"Blood alkaline phosphatase, Grade 4",all-causality TEAE,0 n (%)
same,"Blood alkaline phosphatase, Grade 5",all-causality TEAE,0 n (%)
same,"Blood alkaline phosphatase, Total",all-causality TEAE,7 (41.2) n (%)
same,"Constipation, Grade 1",all-causality TEAE,5 (29.4) n (%)
same,"Constipation, Grade 2",all-causality TEAE,2 (11.8) n (%)
same,"Constipation, Grade 3",all-causality TEAE,0 n (%)
same,"Constipation, Grade 4",all-causality TEAE,0 n (%)
same,"Constipation, Grade 5",all-causality TEAE,0 n (%)
same,"Constipation, Total",all-causality TEAE,7 (41.2) n (%)
same,"Diarrhea, Grade 1",all-causality TEAE,4 (23.5) n (%)
same,"Diarrhea, Grade 2",all-causality TEAE,2 (11.8) n (%)
same,"Diarrhea, Grade 3",all-causality TEAE,1 (5.9) n (%)
same,"Diarrhea, Grade 4",all-causality TEAE,0 n (%)
same,"Diarrhea, Grade 5",all-causality TEAE,0 n (%)
same,"Diarrhea, Total",all-causality TEAE,7 (41.2) n (%)
same,"Edema, peripheral, Grade 1",all-causality TEAE,7 (41.2) n (%)
same,"Edema, peripheral, Grade 2",all-causality TEAE,1 (5.9) n (%)
same,"Edema, peripheral, Grade 3",all-causality TEAE,0 n (%)
same,"Edema, peripheral, Grade 4",all-causality TEAE,0 n (%)
same,"Edema, peripheral, Grade 5",all-causality TEAE,0 n (%)
same,"Edema, peripheral, Total",all-causality TEAE,8 (47.1) n (%)
same,"Fatigue, Grade 1",all-causality TEAE,4 (23.5) n (%)
same,"Fatigue, Grade 2",all-causality TEAE,4 (23.5) n (%)
same,"Fatigue, Grade 3",all-causality TEAE,5 (29.4) n (%)
same,"Fatigue, Grade 4",all-causality TEAE,0 n (%)
same,"Fatigue, Grade 5",all-causality TEAE,0 n (%)
same,"Fatigue, Total",all-causality TEAE,13 (76.5) n (%)
same,"Headache, Grade 1",all-causality TEAE,4 (23.5) n (%)
same,"Headache, Grade 2",all-causality TEAE,1 (5.9) n (%)
same,"Headache, Grade 3",all-causality TEAE,0 n (%)
same,"Headache, Grade 4",all-causality TEAE,0 n (%)
same,"Headache, Grade 5",all-causality TEAE,0 n (%)
same,"Headache, Total",all-causality TEAE,5 (29.4) n (%)
same,"Hyperglycemia, Grade 1",all-causality TEAE,2 (11.8) n (%)
same,"Hyperglycemia, Grade 2",all-causality TEAE,3 (17.6) n (%)
same,"Hyperglycemia, Grade 3",all-causality TEAE,3 (17.6) n (%)
same,"Hyperglycemia, Grade 4",all-causality TEAE,0 n (%)
same,"Hyperglycemia, Grade 5",all-causality TEAE,0 n (%)
same,"Hyperglycemia, Total",all-causality TEAE,8 (47.1) n (%)
same,"Insomnia, Grade 1",all-causality TEAE,7 (41.2) n (%)
same,"Insomnia, Grade 2",all-causality TEAE,1 (5.9) n (%)
same,"Insomnia, Grade 3",all-causality TEAE,0 n (%)
same,"Insomnia, Grade 4",all-causality TEAE,0 n (%)
same,"Insomnia, Grade 5",all-causality TEAE,0 n (%)
same,"Insomnia, Total",all-causality TEAE,8 (47.1) n (%)
same,"Lymphopenia, Grade 1",all-causality TEAE,0 n (%)
same,"Lymphopenia, Grade 2",all-causality TEAE,0 n (%)
same,"Lymphopenia, Grade 3",all-causality TEAE,5 (29.4) n (%)
same,"Lymphopenia, Grade 4",all-causality TEAE,0 n (%)
same,"Lymphopenia, Grade 5",all-causality TEAE,0 n (%)
same,"Lymphopenia, Total",all-causality TEAE,5 (29.4) n (%)
same,"Nausea, Grade 1",all-causality TEAE,12 (70.6) n (%)
same,"Nausea, Grade 2",all-causality TEAE,2 (11.8) n (%)
same,"Nausea, Grade 3",all-causality TEAE,0 n (%)
same,"Nausea, Grade 4",all-causality TEAE,0 n (%)
same,"Nausea, Grade 5",all-causality TEAE,0 n (%)
same,"Nausea, Total",all-causality TEAE,14 (82.4) n (%)
same,"Neuropathy peripheral, Grade 1",all-causality TEAE,8 (47.1) n (%)
same,"Neuropathy peripheral, Grade 2",all-causality TEAE,1 (5.9) n (%)
same,"Neuropathy peripheral, Grade 3",all-causality TEAE,0 n (%)
same,"Neuropathy peripheral, Grade 4",all-causality TEAE,0 n (%)
same,"Neuropathy peripheral, Grade 5",all-causality TEAE,0 n (%)
same,"Neuropathy peripheral, Total",all-causality TEAE,9 (52.9) n (%)
same,"Pyrexia, Grade 1",all-causality TEAE,7 (41.2) n (%)
same,"Pyrexia, Grade 2",all-causality TEAE,5 (29.4) n (%)
same,"Pyrexia, Grade 3",all-causality TEAE,0 n (%)
same,"Pyrexia, Grade 4",all-causality TEAE,0 n (%)
same,"Pyrexia, Grade 5",all-causality TEAE,0 n (%)
same,"Pyrexia, Total",all-causality TEAE,12 (70.6) n (%)
same,"Rash, Grade 1",all-causality TEAE,7 (41.2) n (%)
same,"Rash, Grade 2",all-causality TEAE,1 (5.9) n (%)
same,"Rash, Grade 3",all-causality TEAE,0 n (%)
same,"Rash, Grade 4",all-causality TEAE,0 n (%)
same,"Rash, Grade 5",all-causality TEAE,0 n (%)
same,"Rash, Total",all-causality TEAE,8 (47.1) n (%)
same,"Vomiting, Grade 1",all-causality TEAE,6 (35.3) n (%)
same,"Vomiting, Grade 2",all-causality TEAE,1 (5.9) n (%)
same,"Vomiting, Grade 3",all-causality TEAE,0 n (%)
same,"Vomiting, Grade 4",all-causality TEAE,0 n (%)
same,"Vomiting, Grade 5",all-causality TEAE,0 n (%)
same,"Vomiting, Total",all-causality TEAE,7 (41.2) n (%)
same,"Weight decreased, Grade 1",all-causality TEAE,5 (29.4) n (%)
same,"Weight decreased, Grade 2",all-causality TEAE,4 (23.5) n (%)
same,"Weight decreased, Grade 3",all-causality TEAE,0 n (%)
same,"Weight decreased, Grade 4",all-causality TEAE,0 n (%)
same,"Weight decreased, Grade 5",all-causality TEAE,0 n (%)
same,"Weight decreased, Total",all-causality TEAE,9 (52.9) n (%)
same,"Any SAE, Grade 1",treatment-related SAE,0 n (%)
same,"Any SAE, Grade 2",treatment-related SAE,0 n (%)

# From paper PMC7211198, “Phase 1b study of a small molecule antagonist of human chemokine (C-C motif) receptor 2 (PF-04136309) in combination with nab-paclitaxel/gemcitabine in first-line treatment of metastatic pancreatic ductal adenocarcinoma” (Investigational New Drugs, 2019)
